Measured values taken from article PMC10647553, “Evaluating the Anti-Melanoma Effects and Toxicity of Cinnamaldehyde Analogues” (Molecules, 2023).
Read-outs that look alike come from different tables or passages of the source.

Experiments:
hepatocytes [1] = conditions: mouse, in vivo; cited from earlier work
A375 cells [2] = assay: A375 xenograft in nude mice; assay type: in vivo, BALB/c-nude mice
Method: The 8-week-old female BALB/c-nude mice (18–20 g, specific pathogen-free, SPF) were obtained from the Laboratory Animal Experimental Center of the Academy of Military Medical Sciences (SCXK2012-0004, Beijing, China), and were injected with A375 cells and siENO1-A375 cells (1 × 10^7), respectively. One weeks after the tumor formation, four groups were set up: the “negative control (NC)” group (A375 cells, injected with PBS/day); “siENO1” group (siENO1-A375 cells, injected with PBS/day); “Dacarbazine” group (A375 cells, injected with 10 mg/kg/day dacarbazine); and the “CAD-14” group (A375 cells, injected with 5 mg/kg/day CAD-14). The tumor volume was measured every three days and calculated as length × width^2/2. After two weeks, the mice were sacrificed.
Tumor tissues were isolated from the mice after sacrifice. Then, the tissues were fixed in 4% paraformaldehyde and embedded in paraffin. For immunohistochemistry staining, tissues were stained with Ki67 (GB111141, Servicebio, Wuhan, China). For immunofluorescent staining, tissues were stained with ENO1 (bs-3978R, Bioss, Beijing, China).
Figure 5 CAD-14 inhibited the growth of A375 cells in vivo. (A–C) The A375 cells were transfected with three different recombinant ENO1 retroviral vectors and an NC virus for 72 h; the effect of recombinant retrovirus on ENO1 expression were evaluated via fluorescence photography and Western blotting. Histograms show the intensity ratio. (n = 3). Values represent the means ± SD. ** p < 0.01 versus “NC” group. (D–F) Cells were injected subcutaneously into nude mice. Then, they were treated with Dacarbazine (10 mg/kg/day, as a positive control) or CAD-14 (5 mg/kg/day) for two weeks (the red arrow at day 7 represents the first day of treatment). The tumor volume was calculated (n = 5). (G,H) Immunofluorescent staining of Ki67 and ENO1 to detect proliferation ability and expression of ENO1 in tumor tissues, respectively. Values represent the means ± SD. * p < 0.05 versus “PBS” group.

rats = conditions: intravenous injection; cited from earlier work
hepatocytes [3] = conditions: rat, in vivo, 1100 mg/kg; cited from earlier work
[4] = tested on: melanoma cell lines (A375, A875, SK-MEL-1); assay: Initial screening of analogues against melanoma cell lines; assay type: cell-based; conditions: for activity in initial screening: A375, A875, SK-MEL-1, 0–50 µM, 72 h, Figure 2A–C
Method: (§1) The HepG-2, HUVEC, L-02, HK-2, A375, A549, H8, U251, HeLa, Cal-27, and PANC-1 cells were maintained in a DMEM medium. The TSSCA, SK-MEL-1, and […] cells were cultured in an RPMI-1640 medium, and the A875 cells were cultured in a MEM medium. All cells were supplemented with 10% fetal bovine serum, 100 units/mL penicillin, and streptomycin at 37 °C in 5% CO2. The Cell Counting Kit-8 (CCK-8, bs-0764P, Bioss, Beijing, China) method was used to assay the cytotoxicity.
(§2) Figure 2 Effect of CA analogues in melanoma cells. (A–D) The different melanoma cell lines were treated with 0–50 µM analogues for 72 h, and then IC50 value was assayed (A dashed blue line: 50% inhibition rate; red box: analogues with high activity).

ENO1 = target: T1, ENO1 (Homo sapiens, UniProt P06733); assay: Western blot and cellular thermal shift assay (CETSA) of ENO1; assay type: binding
T1 construct: endogenous in cells; host or cells: A375 cells (whole-cell extracts or cell lysates)
Method: (§3) The A375 cells were treated with CAD-14 (0–0.8 µM), alone or with indicated agents, for 24 h. Whole-cell extracts were loaded for SDS-PAGE gels depending on the target protein sizes, and were explored with protein-specific antibodies followed by HRP-conjugated secondary antibodies. Bands corresponding to the antibodies were detected via ECL chemiluminescence.
In A375 cell lysates, CAD-14 (0.4 μM) was added for 24 h at different temperatures. Western blotting was used to quantify the effects on ENO1 protein levels.
(§4) Figure 4 Validation of the CAD-14 anti-melanoma pathway. (A) Cells were treated with 0–0.8 µM CAD-14 for 24 h, and the ENO1 was assayed via Western blotting. […] (C) Molecular docking analysis of ENO1 and CAD-14. (D) Cells were treated with 0–0.8 µM CAD-14 for 24 h, and the p-38/P-p38 were assayed via Western blot. Histograms show the intensity ratio. Values represent the means ± SD. * p < 0.05, ** p < 0.01 versus “Ctrl” group.

A875 cells = assay: CCK-8 cell viability, A875 melanoma cells; assay type: cell-based; conditions: 0–50 µM, 72 h
Method: as §1, §2

SK-MEL-1 cells = assay: CCK-8 cell viability, SK-MEL-1 melanoma cells; assay type: cell-based; conditions: Homo sapiens, 0–50 µM, 72 h
Method: as §1, §2

[5] = Developmental/acute toxicity test of zebrafish embryos; assay type: in vivo; conditions: AB wild-type, in vivo; zebrafish embryos, 96 h exposure; read-out: median death concentration (IC50)
Text: (§5) The AB-wild-type adult zebrafish (three months old) were purchased from the Institute of Aquatic Biology, Chinese Academy of Sciences (Wuhan, China). During breeding, male and female fish were placed in separate spawning boxes at a 1:1 ratio. Then, early in the morning, they were mixed and laid eggs. During the exposure period, 96-well plates containing normal embryos were randomly selected and viewed daily under a light microscope to assess the developmental toxicity.
(§6) (A) The embryo morphology after CAD-14 treatment for 0–96 h. (B) Survival statistics in different time and concentration.

zebrafish embryos = assay: as above; assay type: in vivo; conditions: 96 h
Text: as §5, §6

A375 cells [6] = assay: Cell cycle analysis by flow cytometry; assay type: cell-based; conditions: A375, 0–0.4 µM, 24 h, concentration-dependent
Method: The A375 cells were incubated with CAD-14 (0–0.4 µM) for 24 h. The cells were collected, washed in PBS, and fixed in ice-cold 75% (v/v) ethanol overnight at –20 °C. The cells were re-suspended, and the DNA content was tested using flow cytometry.
(§7) Figure 3 CAD-14 inhibited the proliferation of A375 cells. (A) The different tumor and normal cell lines were treated with 0–200 µM CAD-14 for 72 h, and then IC50 value was assayed. (B) Cells were treated with 0–0.02 µM CAD-14 for 14 days, and Giemsa staining was used to conduct colony formation assays; the histogram depicts the number of colonies. (C,D) Cells were treated with 0–0.8 µM CAD-14 for 24 h; then, the related proteins were tested via Western blotting. Histograms depict the intensity ratio. (E,F) Cells were treated with 0–0.4 µM CAD-14 for 24 h, then the DNA content of the cells was determined with a flow cytometry system. Histograms show the percentage of cells in G0/G1, G2/M, and S phase. Values represent the means ± SD. * p < 0.05, ** p < 0.01 versus “Ctrl” group.

A375 cells [7] = assay: Colony formation assay; assay type: cell-based; conditions: A375, 0–0.02 µM, 14 days, versus Ctrl
Method: The A375 cells were plated onto six-well plates (500 cells/well), and after 24 h, CAD-14 (0–0.02 µM) was added to the medium and incubated for an additional 14 days. Cells were fixed in methanol and stained with Giemsa. The colonies were then scored and photographed.
as §7

[8] = tested on: multiple types of cancer cells and normal cells; assay: Specificity towards different tumor and normal cell lines; assay type: cell-based; conditions: 0–200 µM, 72 h; Figure 3A
Method: as §1, §7

A375 cells [9] = assay: CCK-8 cell viability, A375 melanoma cells; assay type: cell-based; conditions: Homo sapiens, A-375, 0–50 µM, 72 h
Method: as §1, §2

[10] = tested on: p38 pathway in A375 cells; assay: Western blot of p38/P-p38; assay type: cell-based; conditions: A375, 0–0.8 µM, 24 h
Method: as §3, §4

[11] = tested on: Bak, Bcl-2 and survivin in A375 cells; assay: Western blotting of apoptosis-related proteins; assay type: cell-based; conditions: A375, 0–0.8 µM, 24 h, dose-dependent
Method: as §3, §7

T1 sequence (P06733 whole entry): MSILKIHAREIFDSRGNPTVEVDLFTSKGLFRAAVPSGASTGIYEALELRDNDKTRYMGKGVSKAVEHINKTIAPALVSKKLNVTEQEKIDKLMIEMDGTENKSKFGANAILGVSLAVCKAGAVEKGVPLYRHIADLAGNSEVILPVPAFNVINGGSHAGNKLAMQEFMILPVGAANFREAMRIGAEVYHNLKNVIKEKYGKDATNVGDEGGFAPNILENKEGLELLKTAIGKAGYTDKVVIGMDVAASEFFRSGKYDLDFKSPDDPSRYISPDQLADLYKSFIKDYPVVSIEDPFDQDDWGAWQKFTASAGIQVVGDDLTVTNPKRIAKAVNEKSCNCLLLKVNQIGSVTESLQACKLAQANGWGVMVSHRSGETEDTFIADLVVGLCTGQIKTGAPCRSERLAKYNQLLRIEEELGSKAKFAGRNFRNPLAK

O=C/C=C/c1ccccc1 [CA, Cinnamaldehyde]
micronucleus rate in hepatocytes (hepatocytes [1]): increased | Ki67-positive cells in tumor tissues (A375 cells [2]; staining of tumor tissues, Figure 5G): obvious decrease in Ki67-positive cells | lethal dose (LD50) (rats): 74.8 mg/kg | micronucleus rate in hepatocytes (hepatocytes [3]): increased

O=C/C=C/c1cccc2ccccc12 [CAD-2, (E)-3-(naphthalen-1-yl)acrylaldehyde]
activity in initial screening [4]: strong activity

O=C/C=C/c1ccccc1Br [CAD-7, (E)-3-(2-bromophenyl)acrylaldehyde]
activity in initial screening [4]: strong activity

O=C/C=C/c1cccc(Cl)c1 [CAD-10, (E)-3-(3-chlorophenyl)acrylaldehyde]
activity in initial screening [4]: strong activity

O=C/C=C/c1cccc(Cl)c1Cl [CAD-12, (E)-3-(2,3-dichlorophenyl)acrylaldehyde]
activity in initial screening [4]: strong activity

O=C/C=C/c1c(F)c(F)c(F)c(F)c1F [CAD-14, (E)-3-(perfluorophenyl)acrylaldehyde]
thermal stability of ENO1 (temperature-dependent CETSA) (ENO1; 0.4 μM, A375 cell lysates): decreased the thermal stability of ENO1 | stability of ENO1 protein (ENO1; Western blot 0–0.8 µM 24 h and CETSA): changed the stability of ENO1 protein in a temperature- and dose-responsive manner | tumor growth (A375 cells [2]; 5 mg/kg/day, two weeks, compared with PBS group): can inhibit the tumor growth | tumor growth effect compared with dacarbazine (A375 cells [2]; CAD-14 5 mg/kg/day vs dacarbazine 10 mg/kg/day): the effect was better than dacarbazine | ENO1 expression in tumor tissues (A375 cells [2]; immunofluorescent staining, Figure 5H): fewer ENO1 accumulated | IC50 (A875 cells): 650 nM | IC50 (SK-MEL-1 cells): 820 nM | LC50 (median lethal concentration) at 96 h [5]: 83700 nM | Malformation Rates (zebrafish embryos; 8 μM): 0.00% | Mortalities (zebrafish embryos; 8 μM): 0.00% | Number of Deaths (zebrafish embryos; 8 μM): 0 | Number of Deformities (zebrafish embryos; 8 μM): 0 | Survival Number (zebrafish embryos; 8 μM): 20 | Malformation Rates (zebrafish embryos; 16 μM): 0.00% | Mortalities (zebrafish embryos; 16 μM): 0.00% | Number of Deaths (zebrafish embryos; 16 μM): 0 | Number of Deformities (zebrafish embryos; 16 μM): 0 | Survival Number (zebrafish embryos; 16 μM): 20 | Malformation Rates (zebrafish embryos; 32 μM): 0.00% | Mortalities (zebrafish embryos; 32 μM): 0.00% | Number of Deaths (zebrafish embryos; 32 μM): 0 | Number of Deformities (zebrafish embryos; 32 μM): 0 | Survival Number (zebrafish embryos; 32 μM): 20 | Malformation Rates (zebrafish embryos; 64 μM): 0.00% | Mortalities (zebrafish embryos; 64 μM): 0.00% | Number of Deaths (zebrafish embryos; 64 μM): 0 | Number of Deformities (zebrafish embryos; 64 μM): 0 | Survival Number (zebrafish embryos; 64 μM): 20 | Mortalities (zebrafish embryos; 128 μM): 90.00% | Number of Deaths (zebrafish embryos; 128 μM): 18 | Number of Deformities (zebrafish embryos; 128 μM): 0 | Survival Number (zebrafish embryos; 128 μM): 2 | cell cycle arrest (A375 cells [6]): markedly induced S phase arrest | number of colonies (A375 cells [7]): significantly reduced the number of colonies | activity in initial screening [4]: strong activity | effect relative to CA ([4]; times stronger than CA): 80 times | effect relative to positive drug DTIC ([4]; times stronger than DTIC, Figure 2D): ~15 times | specificity towards cell types [8]: inhibited A375 cells more effectively than other cancer cells and was less sensitive to normal cell lines | IC50 (A375 cells [9]): 580 nM | phosphorylation of p38 [10]: suppressed the phosphorylation of p38 | total p38 protein levels [10]: did not affect its total protein levels | expression of anti-apoptotic protein Bcl-2 [11]: substantially diminished | expression of anti-apoptotic protein survivin [11]: substantially diminished | expression of pro-apoptotic protein Bak [11]: strongly increased

O=C/C=C/c1cccnc1 [CAD-20, (E)-3-(pyridin-3-yl)acrylaldehyde]
activity in initial screening [4]: strong activity

(E)-3-(pyridin-3-yl)acrylaldehyde [CAD-19]
activity in initial screening [4]: strong activity
